Common to all, as to type: in vivo, mouse
Series [1] relates to BALB/c inbred female mice. Nature of the series: ConA induced liver injury. Particulars: 1 mg/kg i.v., 8 hours of ConA treatment. The method, then:
Each experimental group contains at least 5 BALB/c inbred female mice (25 g average weight, Harlan, Israel). The negative control group is composed of mice injected with saline instead of ConA. The injection of ConA (Sigma) is done i.v. at the base of the tail at the dose of 10 mg/kg in saline. The treatments are injected i.v. at 1 mg/kg, 30 minutes prior to the ConA injection. Compounds are dissolved in CREMOPHOR EL®:ethanol and vehicle only was included as an internal control.
Impact of treatment is monitored at three levels. First, blood samples (200-400 μl) are collected at predetermined time points alter ConA injection, using retro-orbital puncture. After short centrifugation (5000 rpm for 2 min) serum is recovered and stored at −80° C. until further use for determination of cytokines levels by ELISA and aminotransferase leakage from the liver as a marker for liver injury. In parallel, the level of cytokines, or other inflammatory mediators, is also determined in the organs of interests. For this purpose, the mice are killed by dislocation of the cervical vertebrae, at predetermined time points following ConA injection. […] Cells are incubated for 24 hours and cytokine levels in the supernatant are determined by ELISA as previously described.
The effect of compound A on liver injury was assessed by measuring the level of ALT in the plasma following 8 hours of ConA treatment. […]

For series [2], the system named is ICR male mice. Put plainly: Tail flick model for acute peripheral pain, i.p. The procedure, abridged:
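Male ICR mice (≥6/group) dosed i.p. at 0.1–10 mg/kg in Cremophor EL:ethanol diluted 1:20 in saline; morphine HCl 5 mg/kg as positive control. Tail illuminated 2 cm from tip at set times post-dose; latency (s) recorded in duplicate. Read-outs: latency and % animals showing analgesia, mean±SE; ANOVA/Tukey or Fisher's exact test, p<0.05.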

Series [3] has as its system Male ICR mice. Nature of the series: Psychomimetic effects: open field locomotor activity and rectal temperature. The conditions noted are these: for hypothermia (rectal body temperature): i.v., end of open-field examination. As for the experimental part:
Male ICR mice (25 g average body weight, Harlan, Israel) are used for a series of tests for psychotropic effects, specifically locomotor activity and rectal temperature. […] Naïve mice were used as control. Each treatment group is composed of at least 6 animals.
Animals were placed in an open field (60×50 cm) 5 minutes after i.v. administration of the treatment or 30 minutes after i.p. injection. Their locomotor activity was recorded using a video based computer system (ViewPoint, France). The following parameters were recorded for 3 minutes: the total distance, the time and the speed traveled by the animals. An additional parameter, rectal body temperature, was monitored at the end of the open-field examination using a thermostat thermometer (Cole Parker Model 8402-00) and a thermostat probe (YSI 400 Model 402).
Results are expressed as mean±SE and the differences between vehicle and treatments are compared by ANOVA, followed by post-hoc Tukey's test.

Series [4] relates to Male ICR mice. Nature of the series: Rotarod locomotor ability. The conditions noted are these: 10 mg/kg i.p. As for the experimental part: The effect of test compounds on overall locomotor ability was assessed in a second experimental setup, where the animals were submitted to a functional test using the rotarod apparatus as described by Rozas et al. (Rozas G. et al., J. of Neuroscience Methods 83: 165-75, 1998). The animals, male ICR mice (average body weight 40 g, Harlan, Israel), were trained for 4 days before beginning the experiment. Their task was to stay on the accelerating rod without falling for 12 minutes (3 minutes at each speed). The tested speeds were: 15, 19, 23 and 27 rpm. Animal performance on the rod was scored as follows: each animal could obtain a maximum of 3 points (1 for each minute) for full walking on the rod at each speed. Therefore, an animal could get a maximum score of 12 points (3 for each speed). Catching the circling beam of the rod without walking subtracted 0.5 points for every 3 circles circled by the animal. […] After proper training, at least 6 animals per group were administered i.p. with various doses of test compounds and controls, at volume dose of 5 ml/kg. Score was determined in the rotarod apparatus at time zero prior to compound injection and 30 minutes, 3 and 24 hours after compound or vehicle administration.
Results are expressed as mean±SD and the differences between vehicle and treatments are compared by ANOVA, followed by post-hoc Tukey's test. […] This effect disappeared at later time points with average scores of 9.7 and 11.9 at 3 and 24 hours respectively.
(In general: Falling from the rotarod earlier than controls is read as motor impairment.)

Setting [5] is: 10 mg/kg i.p., 330 minutes (five and a half hours).

These results are taken from patent US20050020544A1, “Bicyclic CB2 cannabinoid receptor ligands” (priority 2002, published 2005).

As for `CCCCCCC(C)(C)c1cc(O)c(C2CC(=O)C3CC2C3(C)C)c(O)c1` (single isomer, unassigned; (-)) [Compound A, (−)-4-[4-(1,1-Dimethyl-heptyl)2,6-dihydroxy-phenyl]-6,6-dimethyl-bicyclo[3.1.1)heptan-2-one], the “decrease in ALT in the plasma” value in series [1] amounted to 65%. Further, the latency time in series [2] (4 mg/kg i.p., thirty minutes) was 4.9 s; in series [2] (10 mg/kg i.p., 90 minutes), 7.3 s; in series [2] (setting [5]) it was 4.9 s. Besides, the “% animals showing analgesia” value in series [2] (10 mg/kg i.p., 90 minutes) was “more than 80%”. Besides, the “% animals showing increased analgesia” value in series [2] (setting [5]) is reported as 80%; in series [2] (10 mg/kg i.p., initiation of the study) it was 100%. Besides, the analgesia result in series [2] (8 and 10 mg/kg i.p., 330 minutes) is “Significant analgesia was still evident”. In series [2] (maximal tested dose 10 mg/kg i.p., 30 minutes), this molecule showed a maximal latency of 7.1 s. Besides, in series [3], the “hypothermia (rectal body temperature)” value is “about 2 °C”. Moreover, the rotarod average score in series [4] (3 hours) stood at 9.7; in series [4] (24 hours), 11.9; in series [4] (thirty minutes, maximal score 12), 5.6.
Regarding `CCCCCCC(C)(C)c1cc(O)c([C@H]2CC(=O)[C@H]3C[C@@H]2C3(C)C)c(OC(=O)CCC(=O)O)c1` [Compound R, (−)-4-{4-[1,1-Dimethyl-heptyl]-2-succinate-6-hydroxy-phenyl}-6,6-dimethyl-bicyclo[3.1.1]heptan-2-one], in series [2] (10 mg/kg i.p., 90 minutes), the “% animals showing analgesia” value worked out at 100% and the latency time was determined as 8.5 s. In series [2] (setting [5]), the “% animals showing increased analgesia” value was 100% and the latency time worked out at 6.8 s. In series [2] (10 mg/kg i.p., all along the duration of the study (5.5 hours)), the “% animals with increased resistance to pain” value turned out to be 100%. For the same molecule, the “analgesia compared with 5 mg/kg morphine” value in series [2] (4 and 8 mg/kg i.p.) is “still twice better than 5 mg/kg morphine in generating analgesia”. In addition, the total distance covered entry in series [3] (1, 2, 3, 4, 5 and 6 mg/kg i.v., 3 minutes open field) was “fluctuations in total distance covered and again this phenomenon had no statistical significance”. The “hypothermia (rectal body temperature)” value in series [3] is “about 2 °C”.
